In the NIST ThermoML archive (doi:10.1021/acs.jced.5b01023):
± gives the expanded uncertainty stated by the source.

Assay: xn = mol fraction of the nth substance listed
Conditions: for surface tension liquid-gas: Wilhelmy plates; for viscosity / mass density: 101 kPa, Liquid; for viscosity: Capillary tube (Ostwald / Ubbelohde) method; for mass density: Vibrating tube method

CC(=O)[O-].CCn1cc[n+](C)c1 [1-ethyl-3-methylimidazolium acetate] + CCCO
Conditions | mass density [kg/m3] | surface tension liquid-gas [mN/m] | viscosity [mPa·s]
288.15 K, x1 = 0.1017 | 869.4 ± 0.16 | 25.8 ± 0.6 | 4.866 ± 0.057
288.15 K, x1 = 0.2004 | 915.48 ± 0.16 | 27.4 ± 0.6 | 7.99 ± 0.093
288.15 K, x1 = 0.3001 | 953.82 ± 0.18 | 29.7 ± 0.6 | 13.36 ± 0.16
288.15 K, x1 = 0.3998 | 986.05 ± 0.24 | 31.7 ± 0.6 | 22.26 ± 0.27
288.15 K, x1 = 0.4997 | 1013.52 ± 0.34 | 33.7 ± 0.6 | 36.38 ± 0.46
288.15 K, x1 = 0.5996 | 1037.16 ± 0.48 | 35.6 ± 0.6 | 57.47 ± 0.73
288.15 K, x1 = 0.6998 | 1057.65 ± 0.66 | 37.7 ± 0.7 | 90.15 ± 1.4
288.15 K, x1 = 0.8002 | 1075.6 ± 0.86 | 40.2 ± 0.7 | 135 ± 2.8
288.15 K, x1 = 0.8991 | 1090.97 ± 1.1 | 43.2 ± 0.7 | 196.8 ± 5.1
288.15 K, x1 = 1 | 1105.2 ± 1.4 | 47.7 ± 0.8 | 283.8 ± 8.9
298.15 K, x1 = 0.1017 | 862.03 ± 0.17 | 25.2 ± 0.6 | 3.822 ± 0.044
298.15 K, x1 = 0.2004 | 908.4 ± 0.16 | 26.5 ± 0.6 | 6.163 ± 0.072
298.15 K, x1 = 0.3001 | 946.94 ± 0.18 | 29.2 ± 0.6 | 9.963 ± 0.12
298.15 K, x1 = 0.3998 | 979.34 ± 0.24 | 31 ± 0.6 | 15.81 ± 0.19
298.15 K, x1 = 0.4997 | 1006.95 ± 0.33 | 33.1 ± 0.6 | 24.44 ± 0.31
298.15 K, x1 = 0.5996 | 1030.7 ± 0.48 | 34.7 ± 0.6 | 36.48 ± 0.48
298.15 K, x1 = 0.6998 | 1051.29 ± 0.65 | 37.2 ± 0.7 | 53.65 ± 0.72
298.15 K, x1 = 0.8002 | 1069.33 ± 0.85 | 39.7 ± 0.7 | 75.63 ± 1.2
298.15 K, x1 = 0.8991 | 1084.89 ± 1.1 | 42.7 ± 0.7 | 103.9 ± 2
298.15 K, x1 = 1 | 1099.03 ± 1.4 | 47.1 ± 0.8 | 139 ± 3.1
308.15 K, x1 = 0.1017 | 854.63 ± 0.17 | 24.7 ± 0.6 | 3.038 ± 0.035
308.15 K, x1 = 0.2004 | 901.33 ± 0.16 | 25.8 ± 0.6 | 4.878 ± 0.057
308.15 K, x1 = 0.3001 | 940.1 ± 0.19 | 28.7 ± 0.6 | 7.657 ± 0.09
308.15 K, x1 = 0.3998 | 972.66 ± 0.24 | 30.7 ± 0.6 | 11.7 ± 0.14
308.15 K, x1 = 0.4997 | 1000.41 ± 0.33 | 32.7 ± 0.6 | 17.3 ± 0.22
308.15 K, x1 = 0.5996 | 1024.28 ± 0.47 | 34.2 ± 0.6 | 24.75 ± 0.32
308.15 K, x1 = 0.6998 | 1044.96 ± 0.64 | 36.6 ± 0.7 | 34.59 ± 0.47
308.15 K, x1 = 0.8002 | 1063.09 ± 0.84 | 39.2 ± 0.7 | 46.49 ± 0.66
308.15 K, x1 = 0.8991 | 1078.75 ± 1.1 | 42.2 ± 0.7 | 60.98 ± 0.91
308.15 K, x1 = 1 | 1092.93 ± 1.3 | 46.6 ± 0.8 | 77.32 ± 1.3
318.15 K, x1 = 0.1017 | 847.19 ± 0.17 | 23.9 ± 0.6 | 2.461 ± 0.029
318.15 K, x1 = 0.2004 | 894.27 ± 0.16 | 25.3 ± 0.6 | 3.952 ± 0.046
318.15 K, x1 = 0.3001 | 933.29 ± 0.19 | 28.5 ± 0.6 | 6.043 ± 0.071
318.15 K, x1 = 0.3998 | 966.03 ± 0.24 | 30.2 ± 0.6 | 8.961 ± 0.11
318.15 K, x1 = 0.4997 | 993.92 ± 0.33 | 32.2 ± 0.6 | 12.78 ± 0.16
318.15 K, x1 = 0.5996 | 1017.9 ± 0.46 | 33.3 ± 0.6 | 17.58 ± 0.23
318.15 K, x1 = 0.6998 | 1038.68 ± 0.63 | 36.1 ± 0.7 | 23.68 ± 0.32
318.15 K, x1 = 0.8002 | 1056.89 ± 0.83 | 38.8 ± 0.7 | 30.86 ± 0.43
318.15 K, x1 = 0.8991 | 1072.62 ± 1.1 | 41.8 ± 0.7 | 37.98 ± 0.56
318.15 K, x1 = 1 | 1086.86 ± 1.3 | 46.1 ± 0.8 | 47.37 ± 0.73
328.15 K, x1 = 0.1017 | 839.68 ± 0.18 | 23 ± 0.6 | 2.018 ± 0.023
328.15 K, x1 = 0.2004 | 887.21 ± 0.17 | 25 ± 0.6 | 3.268 ± 0.038
328.15 K, x1 = 0.3001 | 926.51 ± 0.19 | 27.9 ± 0.6 | 4.878 ± 0.058
328.15 K, x1 = 0.3998 | 959.44 ± 0.24 | 30 ± 0.6 | 7.05 ± 0.085
328.15 K, x1 = 0.4997 | 987.48 ± 0.32 | 31.7 ± 0.6 | 9.766 ± 0.12
328.15 K, x1 = 0.5996 | 1011.58 ± 0.45 | 33.1 ± 0.6 | 13.01 ± 0.17
328.15 K, x1 = 0.6998 | 1032.45 ± 0.62 | 35.8 ± 0.7 | 17.05 ± 0.23
328.15 K, x1 = 0.8002 | 1050.74 ± 0.82 | 38.1 ± 0.7 | 21.36 ± 0.3
328.15 K, x1 = 0.8991 | 1066.53 ± 1 | 41.4 ± 0.7 | 25.84 ± 0.38
328.15 K, x1 = 1 | 1080.82 ± 1.3 | 45.9 ± 0.8 | 31.29 ± 0.48
338.15 K, x1 = 0.1017 | 832.08 ± 0.18 | 22.3 ± 0.6 | 1.68 ± 0.02
338.15 K, x1 = 0.2004 | 880.13 ± 0.17 | 24 ± 0.6 | 2.686 ± 0.031
338.15 K, x1 = 0.3001 | 919.75 ± 0.19 | 27.3 ± 0.6 | 3.946 ± 0.047
338.15 K, x1 = 0.3998 | 952.89 ± 0.24 | 29.5 ± 0.6 | 5.672 ± 0.069
338.15 K, x1 = 0.4997 | 981.08 ± 0.32 | 31.3 ± 0.6 | 7.675 ± 0.095
338.15 K, x1 = 0.5996 | 1005.3 ± 0.44 | 32.6 ± 0.6 | 9.978 ± 0.13
338.15 K, x1 = 0.6998 | 1026.26 ± 0.61 | 35.5 ± 0.7 | 12.68 ± 0.17
338.15 K, x1 = 0.8002 | 1044.63 ± 0.8 | 37.9 ± 0.7 | 15.57 ± 0.22
338.15 K, x1 = 0.8991 | 1060.48 ± 1 | 41.2 ± 0.7 | 18.49 ± 0.27
338.15 K, x1 = 1 | 1074.83 ± 1.3 | 45.4 ± 0.8 | 21.85 ± 0.33
348.15 K, x1 = 0.1017 | 824.34 ± 0.18 | 21.5 ± 0.6 | 1.413 ± 0.016
348.15 K, x1 = 0.2004 | 873.02 ± 0.17 | 23.6 ± 0.6 | 2.26 ± 0.026
348.15 K, x1 = 0.3001 | 912.99 ± 0.19 | 27.1 ± 0.6 | 3.292 ± 0.039
348.15 K, x1 = 0.3998 | 946.36 ± 0.24 | 29.3 ± 0.6 | 4.651 ± 0.057
348.15 K, x1 = 0.4997 | 974.71 ± 0.32 | 30.8 ± 0.6 | 6.175 ± 0.077
348.15 K, x1 = 0.5996 | 999.06 ± 0.44 | 31.8 ± 0.6 | 7.866 ± 0.1
348.15 K, x1 = 0.6998 | 1020.12 ± 0.6 | 34.5 ± 0.7 | 9.81 ± 0.13
348.15 K, x1 = 0.8002 | 1038.57 ± 0.79 | 37.6 ± 0.7 | 11.81 ± 0.16
348.15 K, x1 = 0.8991 | 1054.49 ± 1 | 41 ± 0.7 | 13.78 ± 0.2
348.15 K, x1 = 1 | 1068.88 ± 1.3 | 45.1 ± 0.8 | 16.01 ± 0.24
